For 65 compounds, IC50 results are on record in patent US20040127519A1 (Pharmacia Corporation, priority 2002, published 2004).

For the test, the target named is Recombinant MAPKAPK2 (Homo sapiens, UniProt P49137). The test is described as follows: Determination of MK-2 IC50 (HSP-peptide phosphorylation, anion exchange resin capture assay). In kind it is biochemical. On the procedure: The phosphorylation of HSP-peptide ([…]) by MAPKAPK2 was measured using an anion exchange resin capture assay method. […] The reaction was terminated and [γ^33P]ATP was removed from solution by the addition of 150 μl of AG 1×8 ion exchange resin in 900 mM sodium formate pH 3.0. A 50 μl aliquot of head volume was removed from the quenched reaction mixture and added to a 96-well plate, 150 μl of Microscint-40 (Packard) was added and the amount of phosphorylated-peptide was determined. Allow the Microscint to sit in the plates for 60 minutes prior to counting.
Chain of Recombinant MAPKAPK2 (P49137 whole entry, species assumed): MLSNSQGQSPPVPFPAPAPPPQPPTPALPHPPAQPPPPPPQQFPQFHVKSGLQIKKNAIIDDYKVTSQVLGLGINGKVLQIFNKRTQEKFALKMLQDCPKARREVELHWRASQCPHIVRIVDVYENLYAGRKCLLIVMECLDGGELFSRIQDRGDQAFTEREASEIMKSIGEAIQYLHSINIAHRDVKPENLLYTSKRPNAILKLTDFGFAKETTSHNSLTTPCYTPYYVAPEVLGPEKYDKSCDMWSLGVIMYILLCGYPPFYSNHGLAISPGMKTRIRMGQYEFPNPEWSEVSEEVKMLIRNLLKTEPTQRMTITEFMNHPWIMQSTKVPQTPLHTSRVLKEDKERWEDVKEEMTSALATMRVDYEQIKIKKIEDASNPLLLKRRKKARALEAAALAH
Compounds are evaluated as potential inhibitors of the MK2 kinase by measuring their effects on MK2 phosphorylation of the peptide substrate. Compounds may be screened initially at two concentrations prior to determination of IC50 values. Screening results are expressed as percent inhibition at the concentrations of compound tested. For IC50 value determinations, compounds are tested at six concentrations in ten-fold serial dilutions with each concentration tested in triplicate. Results are expressed as IC50 values in micromolar. The assay is performed at a final concentration of 2% DMSO.

[1] abbreviates: MK-2 Avg. IC50, Table 2, tricyclic aminocyanopyridine MK-2 inhibitors.
Where [2] appears, read: MK-2 Avg. IC50, Table I, aminocyanopyridine MK-2 inhibitors.

Structures are written as SMILES.

One may read the IC50 as the concentration at which inhibition is half-maximal. Turning to `COc1ccc2c(c1)Oc1nc(N)c(C#N)c(N)c1C2` [Example 34], the concentration for half-maximal inhibition (IC50) under setting [1] was determined as 3.24 µM.
Turning to `N#Cc1c(N)nc2c(c1-c1ccco1)C1CCC2C1` (centres unmarked) [Example 122], the IC50 under setting [2] amounted to 122 µM.
Same read-out and setting: then `N#Cc1c(-c2ccccc2F)cc(-c2ccc(O)c(O)c2)nc1N` [Example 32], with 9.2 µM; and `N#Cc1c(-c2ccco2)cc(-c2ccc(-n3ccnc3)cc2)nc1N` [Example 120], with 121 µM.
Still for that read-out and setting: then `N#Cc1c(-c2ccco2)cc(-c2ccc(S(N)(=O)=O)cc2)nc1N` [Example 46], with 16.1 µM; and `CSc1cc(N)c(C#N)c(N)n1` [Example 67], with 41.6 µM; and `COCC1Cc2c(nc(N)c(C#N)c2N)O1` (centres unmarked) [Example 118], with 119 µM.
On the same count and under the same terms, for `N#Cc1c(-c2ccccc2F)cc(-c2ccc(O)c(O)c2)nc1N` [Example 27] the value was 7.54 µM.
For the compound `CCOCCNc1c(C#N)c(N)nc2c1Cc1ccc(OCCOCC)cc1O2` [Example 44], the IC50 under setting [1] was found to be 9.66 µM.
In the case of `Cn1ccc(-c2cc(-c3ccco3)c(C#N)c(N)n2)c1` [Example 60], the IC50 under setting [2] came out at 32.1 µM.
Same read-out and setting: then `COc1ccc(-c2cc(-c3cnc[nH]3)c(C#N)c(N)n2)cc1` [Example 37], with 9.43 µM.
For `N#Cc1c(N)nc2c(c1N)Cc1cccc(OCCN3CCCC3)c1O2` [Example 59], the half-inhibitory concentration (IC50) under setting [1] turned out to be 45.2 µM.
As to `N#Cc1c(-c2ccccc2F)cc(-c2cccc(O)c2)nc1N` [Example 51], the IC50 under setting [2] was 24.2 µM.
Regarding `CNc1c(C#N)c(N)nc2c1Cc1cc(OC)c(OC)cc1O2` [Example 26], the half-maximal inhibitory concentration (IC50) under setting [1] came out at 1.69 µM.
For the compound `N#Cc1c(-c2cnc[nH]2)cc(-c2ccccc2)nc1N` [Example 45], the concentration for half-maximal inhibition (IC50) under setting [2] is 14.2 µM.
With `COc1ccccc1-c1c(C#N)c(N)nc2c1CCc1n[nH]cc1-2` [Example 129], under setting [2], the IC50 was 136 µM.
Still for that read-out and setting: then `N#Cc1c(-c2ccccc2B(O)O)cc(-c2ccco2)nc1N` [Example 108], with 99.6 µM; and `N#Cc1c(-c2cccc(F)c2)cc(-c2ccc(O)cc2)nc1N` [Example 104], with 96 µM.
Consider `COC(=O)c1ccc(-c2cc(-c3ccco3)c(C#N)c(N)n2)cc1` [Example 150], for which the IC50 under setting [2] is 199 µM.
For the compound `N#Cc1c(-c2cnc[nH]2)cc(-c2ccco2)nc1N` [Example 21], the IC50 under setting [2] came to 5.95 µM.
In the case of `COc1cc(N)cc2c1Oc1nc(N)c(C#N)c(N)c1C2` [Example 29], under setting [1], the IC50 amounted to 1.79 µM.
The same measure, in the same setting: for `N#Cc1c(N)nc2c(c1N)Cc1cccc(F)c1S2` [Example 57] the value was 42.2 µM.
For `N#Cc1c(N)nc2c(c1-c1ccco1)CCc1[nH]ccc1-2` [Example 34], the IC50 under setting [2] came to 9.4 µM.
Still for that read-out and setting: for `C#CCOCC1Cc2c(nc(N)c(C#N)c2N)O1` (centres unmarked) [Example 110] the value was 105 µM; for `N#Cc1c(-c2ccccc2F)cc(-c2ccoc2)nc1N` [Example 49], 17.9 µM; for `N#Cc1c(-c2ccco2)cc(-c2c[nH]c3ccccc23)nc1N` [Example 119], 120 µM.
Consider `N#Cc1c(-c2cnc[nH]2)cc(-c2ccc(Cl)cc2)nc1N` [Example 69], for which, under setting [2], the 50% inhibitory concentration (IC50) came to 42.9 µM.
On the same count and under the same terms, then `CC1Cc2c(nc(N)c(C#N)c2N)O1` (centres unmarked) [Example 71], with 44.1 µM; and `N#Cc1c(-c2ccco2)cc(-c2ccncc2)nc1N` [Example 66], with 39.9 µM.
Take `N#Cc1c(N)nc2c(c1N)Cc1ccc(O)c(O)c1O2` [Example 21]: the IC50 under setting [1] came out at 0.857 µM.
Take `N#Cc1c(N)nc2c(c1-c1nnc[nH]1)CCc1cc(C(=O)O)ccc1-2` [Example 19]: under setting [2], the IC50 came out at 5.74 µM.
For `CCNc1c(C#N)c(N)nc2c1Cc1ccc(OCC)cc1O2` [Example 37], the half-inhibitory concentration (IC50) under setting [1] came to 4.76 µM.
Turning to `CC1Cc2n[nH]cc2-c2nc(N)c(C#N)c(-c3ccco3)c21` (centres unmarked) [Example 59], the IC50 under setting [2] is 31.3 µM.
Same read-out and setting: then `N#Cc1c(N)nc2c(c1N)CC(C(F)(F)F)O2` (centres unmarked) [Example 23], with 6.14 µM; and `N#Cc1c(N)nc2c(c1N)CC(CO)O2` (centres unmarked) [Example 111], with 106 µM.
On to `N#Cc1c(N)nc2c(c1N)Cc1ccc(OCCO)cc1O2` [Example 10], for which the IC50 under setting [1] was 0.483 µM.
For `N#Cc1c(-c2ccco2)cc(-c2ccccn2)nc1N` [Example 132], the 50% inhibitory concentration (IC50) under setting [2] is 149 µM.
For the compound `COc1ccc(OCC2Cc3c(nc(N)c(C#N)c3N)O2)cc1` (centres unmarked) [Example 93], under setting [2], the IC50 came to 69.8 µM.
On the same count and under the same terms, then `CC1Cc2c(nc(N)c(C#N)c2-c2ccco2)-c2ccccc21` (centres unmarked) [Example 117], with 119 µM.
The same measure, in the same setting: then `N#Cc1c(-c2ccco2)cc(-c2nccs2)nc1N` [Example 142], with 167 µM.
As to `N#Cc1c(N)nc2c(c1N)Cc1cc([N+](=O)[O-])ccc1S2(=O)=O` [Example 64], under setting [1], the IC50 worked out at 80.8 µM.
`N#Cc1c(-c2ccccc2F)cc(-c2ccc(C(=O)O)cc2)nc1N` [Example 25]: under setting [2], the IC50 came out at 6.4 µM.
On the same count and under the same terms, then `N#Cc1c(N)nc2c(c1-c1ccc(F)cc1)CCc1n[nH]cc1-2` [Example 42], with 12.9 µM; and `CC(C)(C)OCC1Cc2c(nc(N)c(C#N)c2N)O1` (centres unmarked) [Example 141], with 167 µM.
The same measure, in the same setting: for `N#Cc1c(-c2c[nH]c(C(N)=O)c2)cc(-c2ccco2)nc1N` [Example 6] the value was 2.41 µM; for `COc1cc(N)c(C#N)c(N)n1` [Example 79], 50.9 µM.
As to `N#Cc1c(N)nc2c(c1N)Cc1cccc([N+](=O)[O-])c1O2` [Example 32], the half-maximal inhibitory concentration (IC50) under setting [1] stood at 2.58 µM.
The same measure, in the same setting: for `N#Cc1c(N)nc2c(c1N)Cc1cc(Br)ccc1O2` [Example 49] the value was 15.1 µM.
For `N#Cc1c(N)nc2c(c1-c1nnc[nH]1)CCc1ccccc1-2` [Example 43], the IC50 under setting [2] amounted to 13.1 µM.
Consider `N#Cc1c(N)nc2c(c1N)Cc1ccc(OCC(=O)O)cc1O2` [Example 23], for which, under setting [1], the IC50 came to 0.916 µM.
As to `N#Cc1c(-c2ccccc2F)cc(-c2ccco2)nc1NCC(=O)O` [Example 115], the IC50 under setting [2] stood at 114 µM.
The same measure, in the same setting: for `N#Cc1c(N)nc2c(c1-c1ccco1)CCc1c(O)cccc1-2` [Example 101] the value was 82.6 µM; for `CCCCC1Cc2c(nc(N)c(C#N)c2N)O1` (centres unmarked) [Example 77], 49.1 µM.
On the same count and under the same terms, then `N#Cc1c(N)nc2c(c1-c1c(F)cccc1F)CCc1[nH]ncc1-2` [Example 11], with 3.59 µM.
With `COc1cc2c(cc1OC)Oc1nc(N)c(C#N)c(NCCN)c1C2` [Example 46], under setting [1], the half-inhibitory concentration (IC50) was determined as 11.5 µM.
With `N#Cc1c(-c2ccccc2O)cc(-c2ccco2)nc1N` [Example 146], the half-maximal inhibitory concentration (IC50) under setting [2] came to 185 µM.
Still for that read-out and setting: for `N#Cc1c(-c2ccc(C(F)(F)F)cc2F)cc(-c2ccco2)nc1N` [Example 128] the value was 133 µM.
As for `CS(=O)(=O)c1ccc(-c2cc(-c3cnc[nH]3)c(C#N)c(N)n2)cc1` [Example 72], the IC50 under setting [2] came out at 45.3 µM.
On the same count and under the same terms, then `COc1ccc(Nc2c(C#N)c(N)nc3c2CC(C(F)(F)F)O3)cc1` (centres unmarked) [Example 63], with 36.4 µM; and `N#Cc1c(N)nc2ccccc2c1C(=O)O` [Example 137], with 161 µM.
In the case of `N#Cc1c(N)nc2c(c1N)Cc1cc(OCCN)c(OCCN)cc1O2` [Example 31], the IC50 under setting [1] is 2.55 µM.
Consider `COc1ccc(-c2cc(-c3cccc(F)c3)c(C#N)c(N)n2)cc1` [Example 107], for which the concentration for half-maximal inhibition (IC50) under setting [2] came out at 97.3 µM.
On the same count and under the same terms, for `N#Cc1c(N)nc2c(c1-c1cccc(F)c1)CCc1n[nH]cc1-2` [Example 31] the value was 8.5 µM; for `N#Cc1c(-c2ccc(Br)cc2)cc(-c2ccco2)nc1N` [Example 126], 130 µM.
Still for that read-out and setting: then `C=CCOCC1Cc2c(nc(N)c(C#N)c2N)O1` (centres unmarked) [Example 116], with 118 µM.
